In patent US20070292512A1, “Solid Oral Dosage Form Containing an Enhancer” (priority 2006, published 2007):
Entries after “also recorded” stand apart in the source; their conditions may differ. Each block holds one molecule with its values, some of them ahead of it.

Assays:
[1] = Closed-loop rat segment, intraileal USP heparin, APTT response; type: in vivo; details: USP heparin 1000 iu intraileal, sodium caprate 10 and 35 mg
From the text: APTT measurements were taken at various time points.

[2] = system: anti-factor Xa activity; experiment: Dog study of oral heparin tablets, anti-factor Xa; type: in vivo; details: IR formulations, equivalent dose of heparin, dogs
Description: Tablets from batches 3, 7 and 15 in Tables 5 and 6 above were dosed orally to groups of five dogs in a single dose crossover study. […] Blood samples for anti-factor Xa analysis were collected from the jugular vein at various time points.

[3] = system: Caco-2 monolayers; experiment: 3H-TRH transepithelial transport (Papp) in Caco-2 monolayers; type: in vitro ADME; details: sodium salts at concentrations of Table 1
Description: (§1) Cell Culture: Caco-2 cells were cultured in Dulbecco's Modified Eagles Medium (DMEM) 4.5 g/L glucose supplemented with 1% (v/v) non-essential amino acids; 10% fetal calf serum and 1% penicillin/streptomycin. […] The cells were grown and expanded in standard tissue culture flasks and were passaged once they attained 100% confluence. The Caco-2 cells were then seeded on polycarbonate filter inserts (Costar; 12 mm diameter, 0.4 μm pore size) at a density of 5×10^5 cells/cm^2 and incubated in six well culture plates with a medium change every second day. Confluent monolayers between day 20 and day 30 seeding on filters and at passages 30-40 were used throughout these studies.
(§2) The transport experiments were performed in Hank's Balanced Salt Solution (HBSS) containing 25 mM N-[2-hydroxyethyl]-piperazine-N′-[2-ethanesulfonic acid] (HEPES) buffer, pH 7.4 at 37° C. Due to variations in solubilities, various concentrations of the different MCFA sodium salts and various apical buffers were used as shown in Table 1. In all cases the basolateral chamber contained regular HBSS+HEPES.
(§3) After removing the cell culture medium, the monolayers were placed in wells containing pre-warmed HBSS (37° C.); 1 ml apically and 2 ml basolaterally. Monolayers were incubated at 37° C. for 30 minutes. Then at time zero, apical HBSS was replaced with the relevant apical test solution containing the radio-labeled compounds with and without the enhancer compound. […] The plates were placed on an orbital shaker in an incubator (37° C.). […] At each 30-minute interval, each insert was transferred to a new well containing 2 ml fresh pre-warmed HBSS. […] Mean values for ^3H-TRH concentrations were calculated for the apical and basolateral solutions at each time point.

[4] = system: Caco-2 monolayers; experiment: TEER in Caco-2 monolayers; type: cell-based; details: sodium salts at concentrations of Table 1, with 3H-TRH, over 2 hours
Description: as §1, §2, §3

[5] = system: anti-factor Xa activity; experiment: Closed-loop rat segment, intraileal USP heparin, anti-factor Xa response; type: in vivo; details: USP heparin 1000 iu
[6] = Closed loop rat model, intraduodenal TRH with enhancer, serum TRH; type: in vivo, Male Wistar rats; details: intraduodenal bolus 500 or 1000 μg TRH with 35 mg enhancer
Description: Male Wistar rats (weight range 250 g-350 g) were anaesthetized with ketamine hydrochloride/acepromazine. […] All intraduodenal dose volumes (for samples and control) were 1 ml/kg. The proximal end of the segment was ligated, and the loop was sprayed with isotonic saline (37° C.) to provide moisture and then replaced in the abdominal cavity avoiding distension. The incision was closed with surgical clips. A group of animals were administered TRH in PBS (100 μg in 0.2 ml) by subcutaneous injection as a reference.

[7] = system: human tumor xenografts and murine tumors; details: human tumor xenografts and murine tumors in mouse models; cited from earlier work
[8] = cited from earlier work
[9] = in vivo; parameters: species or system beagle dogs; details: beagle, dog
Description: The study was a single dose crossover study using from 2 to 5 dogs. Fasted animals were dosed weekly with an intravenous dose (reference) or one of three experimental romidepsin formulations administered directly into the duodenum via a surgically implanted cannula. In all cases the administered dose was 0.1 mg/kg body weight. Blood samples were obtained at selected time intervals post dosing and plasma was shipped to Japan Clinical Laboratories (JCL) for romidepsin analyses. Upon receipt of bioanalytical data from JCL, the individual animal plasma data were loaded into an Excel spreadsheet (Microsoft® Office Excel 2003) and the following pharmacokinetic parameters were calculated from the concentration-time data for each subject: Cmax, Tmax, T1/2, AUC(0-t) and % Bioavailability (% F). Pharmacokinetic parameters were calculated using macros written for Excel (Usansky et al., PK Functions for Microsoft Excel (1999) available at: www.boomer.org/[…].doc).

[10] = biological target: HDAC1 (Homo sapiens, UniProt Q13547); details: range stated for each enzyme; cited from earlier work
[11] = biological target: HDAC4 (Homo sapiens, UniProt P56524); details: cited from earlier work
[12] = system: HDAC6; details: cited from earlier work
[13] = dog, in vivo
Description: Beagle dogs (10-15 Kg) were sedated with medetomidine (80 μg/kg) and an endoscope was inserted via the mouth, esophagus, and stomach into the duodenum. The test solutions (10 ml) comprising leuprolide acetate (Mallinckrodt Inc, St. Louis, Mo.) with or without enhancer reconstituted in deionized water were administered intraduodenally via the endoscope. Following removal of the endoscope, sedation was reversed using atipamezole (400 μg/kg). The parenteral reference solutions comprising 1 mg Leuprolide reconstituted in 0.5 ml sterile water were administered intravenously and subcutaneously respectively.

[14] = system: HDAC; details: compared to romidepsin; cited from earlier work

Chain of HDAC4 (P56524 whole entry, species assumed): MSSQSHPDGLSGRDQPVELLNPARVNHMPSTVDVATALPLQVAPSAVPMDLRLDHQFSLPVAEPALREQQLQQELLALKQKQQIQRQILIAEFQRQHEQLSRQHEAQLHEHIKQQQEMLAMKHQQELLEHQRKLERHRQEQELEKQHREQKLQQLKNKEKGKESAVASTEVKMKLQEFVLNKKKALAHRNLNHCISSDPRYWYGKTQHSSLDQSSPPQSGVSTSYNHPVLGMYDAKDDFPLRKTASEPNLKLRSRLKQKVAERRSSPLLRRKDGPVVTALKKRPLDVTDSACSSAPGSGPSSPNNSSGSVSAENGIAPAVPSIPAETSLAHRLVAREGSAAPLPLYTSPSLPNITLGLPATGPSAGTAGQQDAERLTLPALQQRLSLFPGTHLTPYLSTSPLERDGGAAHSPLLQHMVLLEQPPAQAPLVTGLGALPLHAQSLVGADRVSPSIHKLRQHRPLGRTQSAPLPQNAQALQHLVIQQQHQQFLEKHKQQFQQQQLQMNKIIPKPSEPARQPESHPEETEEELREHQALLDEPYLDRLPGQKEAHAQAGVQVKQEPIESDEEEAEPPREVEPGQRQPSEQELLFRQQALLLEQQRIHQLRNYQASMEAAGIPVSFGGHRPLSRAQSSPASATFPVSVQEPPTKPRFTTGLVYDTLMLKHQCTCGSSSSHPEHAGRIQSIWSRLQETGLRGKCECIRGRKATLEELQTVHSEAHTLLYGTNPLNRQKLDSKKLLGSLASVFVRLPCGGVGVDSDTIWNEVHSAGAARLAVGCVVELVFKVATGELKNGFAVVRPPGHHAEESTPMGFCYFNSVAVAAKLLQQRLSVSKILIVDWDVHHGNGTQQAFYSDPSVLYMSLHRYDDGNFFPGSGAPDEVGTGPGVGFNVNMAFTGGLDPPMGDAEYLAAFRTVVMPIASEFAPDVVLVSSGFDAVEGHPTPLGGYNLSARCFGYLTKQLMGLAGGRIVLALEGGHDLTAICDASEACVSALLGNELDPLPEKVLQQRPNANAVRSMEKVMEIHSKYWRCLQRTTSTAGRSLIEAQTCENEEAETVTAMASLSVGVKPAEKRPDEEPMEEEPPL
Chain of HDAC1 (Q13547 whole entry): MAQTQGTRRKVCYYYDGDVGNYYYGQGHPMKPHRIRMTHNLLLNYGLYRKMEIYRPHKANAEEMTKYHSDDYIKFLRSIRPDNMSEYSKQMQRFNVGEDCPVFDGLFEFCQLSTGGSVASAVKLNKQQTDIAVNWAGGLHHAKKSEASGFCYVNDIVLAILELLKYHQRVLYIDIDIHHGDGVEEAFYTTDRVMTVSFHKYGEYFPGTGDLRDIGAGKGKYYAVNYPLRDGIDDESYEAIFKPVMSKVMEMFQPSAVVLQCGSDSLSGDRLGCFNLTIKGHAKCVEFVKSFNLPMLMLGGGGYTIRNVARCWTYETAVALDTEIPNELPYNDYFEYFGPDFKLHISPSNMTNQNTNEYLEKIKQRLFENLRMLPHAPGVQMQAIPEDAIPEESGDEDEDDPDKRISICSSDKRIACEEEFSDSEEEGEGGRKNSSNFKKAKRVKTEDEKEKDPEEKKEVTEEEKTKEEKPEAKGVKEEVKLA

SMILES: CCCCCCCCCC(=O)[O-].[Na+] [NaC10, sodium caprate]
heparin absorption by APTT response vs control heparin solution [1]: significant increase in absorption
anti-factor Xa response, NaC10 versus NaC8 enhancer [2]: larger anti-factor Xa response
Papp for 3H-TRH compared to the control [3]: considerable increases
effect on TEER compared to the control [4]: minimal reduction in TEER
anti-factor Xa activity relative to control heparin solution ([5]; enhancer 10 mg dose): significant increase in anti-factor Xa activity
anti-factor Xa activity relative to control heparin solution ([5]; enhancer 35 mg dose): significant increase in anti-factor Xa activity
serum levels of TRH over the control TRH solution [6]: significantly increases the serum levels of TRH

effect on TEER compared to the control [4]: minimal reduction in TEER
SMILES: CCCCCCCCCCCCCCCCCC(=O)[O-].[Na+] [Batch C18]

SMILES: C/C=C1\NC(=O)[C@H]2CSSCC/C=C/[C@H](CC(=O)N[C@H](C(C)C)C(=O)N2)OC(=O)[C@H](C(C)C)NC1=O [romidepsin, (1S,4S,10S,16E,21R)-7-[(2Z)-ethylidene]-4,2,1-diisopropyl-2-oxa-12,13-dithia-5,8,20,23-tetraazabicyclo[8.7.6]tricos-16-ene-3,6,9,19,22-pentanone]
in vivo antitumor activity [7]: in vivo antitumor activity
stability in medium and serum [8]: more stable than redFK
bioavailability [9]: ≤ 28%
times weaker than redFK in inhibiting HDAC1 [10]: 17-23 times
times weaker than redFK in inhibiting HDAC4 ([11]; range stated for each enzyme): 17-23 times
times weaker than redFK in inhibiting HDAC6 ([12]; range stated for each enzyme): 17-23 times

systemic delivery of leuprolide without enhancer [13]: negligible
SMILES: CCNC(=O)[C@@H]1CCCN1C(=O)[C@H](CCCNC(=N)N)NC(=O)[C@H](CC(C)C)NC(=O)[C@@H](CC(C)C)NC(=O)[C@H](Cc1ccc(O)cc1)NC(=O)[C@H](CO)NC(=O)[C@H](Cc1c[nH]c2ccccc12)NC(=O)[C@H](Cc1c[nH]cn1)NC(=O)[C@@H]1CCC(=O)N1 [leuprolide, leuprolide acetate]
systemic delivery of leuprolide on coadministration with enhancer [13]: considerable enhancer dose dependent enhancement

SMILES: CCCCCCCC(=O)[O-].[Na+] [NaC8, sodium caprylate]
serum levels of TRH over the control TRH solution [6]: significantly increases the serum levels of TRH

Papp for 3H-TRH compared to the control [3]: considerable increases
effect on TEER compared to the control [4]: minimal reduction in TEER
SMILES: CCCCCCCCCCCCCC(=O)[O-].[Na+] [Batch C14]

SMILES: C/C=C1\NC(=O)[C@@H](CS)NC(=O)[C@@H](C(C)C)NC(=O)C[C@@H](/C=C/CCS)OC(=O)[C@H](C(C)C)NC1=O [redFK]
stability in medium and serum [8]: rapid inactivation
inhibiting in vivo HDAC activity [14]: less active compared to romidepsin
inhibitory effect against HDAC4 ([11]; low nanomolar concentrations): relatively weak
inhibitory effect against HDAC6 ([12]; low nanomolar concentrations): relatively weak; also recorded: almost insensitive

SMILES: CCCCCCCCCCCC(=O)[O-].[Na+] [Batch C12, sodium laurate]
Papp for 3H-TRH compared to the control [3]: considerable increases
effect on TEER compared to the control [4]: some cell damage (reduction in TEER)
